Test results from PubChem BioAssay (NCI).
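Cells were grown in 96-well plates and exposed to each compound for 48 hours at five concentrations; endpoints were interpolated linearly between bracketing concentrations, or set to the highest concentration if not reached. GI50: concentration for 50% inhibition of growth. TGI: concentration producing complete growth inhibition.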 Peptide text beside a SMILES is read from it. * marks the point of attachment. X26 = Clc1c(Cl)c(Cl)c(O*)c(Cl)c1Cl; Boc = CC(C)(C)OC(=O)*; OBn = c1ccc(CO*)cc1; Bn = c1ccc(C*)cc1

Tests used:
Test in all cases: DTP human tumour cell line panel, 48 h
BT-549 breast = tested on: BT-549 breast
SN12C renal = tested on: SN12C renal
TK-10 renal = tested on: TK-10 renal
SK-MEL-2 melanoma = tested on: SK-MEL-2 melanoma
MALME-3M melanoma = tested on: MALME-3M melanoma
SF-268 CNS = tested on: SF-268 CNS
LOX IMVI melanoma = tested on: LOX IMVI melanoma
MDA-MB-435 = tested on: MDA-MB-435
UACC-257 melanoma = tested on: UACC-257 melanoma
UO-31 renal = tested on: UO-31 renal

Compound	GI50 (BT-549 breast)	TGI (BT-549 breast)	GI50 (SN12C renal)	TGI (SN12C renal)	GI50 (TK-10 renal)	TGI (TK-10 renal)	GI50 (SK-MEL-2 melanoma)	TGI (SK-MEL-2 melanoma)	TGI (MALME-3M melanoma)	TGI (SF-268 CNS)	TGI (LOX IMVI melanoma)	TGI (MDA-MB-435)	TGI (UACC-257 melanoma)	TGI (UO-31 renal)	GI50 (MALME-3M melanoma)	GI50 (SF-268 CNS)	GI50 (LOX IMVI melanoma)	GI50 (MDA-MB-435)	GI50 (UACC-257 melanoma)	GI50 (UO-31 renal)
CCN1CCN(Cc2ccc(NC(=O)Nc3ccc(-n4ccc5c(NC(=O)c6ccccc6)nccc54)cc3)cc2C(F)(F)F)CC1	1.43 µM	2.77 µM	3.17 µM	> 20.7 µM	1.5 µM	> 100 µM	3.62 µM	> 100 µM	–	–	–	–	–	–	–	–	–	–	–	–
N#C/C(=C\c1cccc(Br)c1)c1nc2ccccc2c(=O)[nH]1	–	–	–	> 100 µM	–	> 100 µM	–	> 100 µM	> 100 µM	> 100 µM	> 100 µM	> 100 µM	> 100 µM	> 100 µM	–	–	–	–	–	–
COCC#C[C@@]1(O)CCCCC1CC(OC)OC (some centres undefined)	–	–	–	> 100 µM	–	> 100 µM	–	> 100 µM	> 100 µM	> 100 µM	> 100 µM	> 100 µM	> 100 µM	> 100 µM	–	–	–	–	–	–
Nc1c(S(N)(=O)=O)cc(S(N)(=O)=O)cc1S(N)(=O)=O	–	> 100 µM	–	> 100 µM	–	> 100 µM	–	–	> 100 µM	> 100 µM	> 100 µM	> 100 µM	> 100 µM	> 100 µM	–	–	–	–	–	–
O=c1c(-c2ccccc2)c(SCCN2CCCCCC2)n(-c2ccccc2)c(=S)n1-c1ccccc1	–	> 100 µM	–	–	–	> 100 µM	–	–	49.3 µM	–	> 100 µM	> 100 µM	> 100 µM	–	–	–	–	–	–	–
N#Cc1ccc(-c2nc(C#N)c(N)o2)cc1	–	> 10 µM	–	> 10 µM	–	> 10 µM	–	–	> 10 µM	> 10 µM	> 10 µM	> 10 µM	> 10 µM	> 10 µM	–	–	–	–	–	–
Oc1c(OCc2nnc(CCCCCCCCc3nnc(COc4ccc5ccccc5c4O)o3)o2)ccc2ccccc12	–	> 100 µM	–	> 100 µM	–	> 100 µM	–	> 100 µM	> 100 µM	> 100 µM	–	> 100 µM	> 100 µM	> 100 µM	–	–	–	–	–	–
Cc1ccc2c(c1C)CC1(Cc3c(C)ccc(C)c3C1=O)C2=O (centres undefined)	–	> 100 µM	–	> 100 µM	–	> 100 µM	–	–	> 100 µM	> 100 µM	–	> 100 µM	> 100 µM	> 100 µM	–	–	–	–	–	–
CN(C)CCNc1c([N+](=O)[O-])sc2ccc(Cl)cc12	–	> 100 µM	–	> 100 µM	–	> 100 µM	–	> 100 µM	> 100 µM	> 100 µM	> 100 µM	> 100 µM	–	> 100 µM	–	–	–	–	–	–
O=c1ccn(-c2ccccn2)c(=O)n1-c1ccccn1	–	–	–	> 100 µM	–	> 100 µM	–	> 100 µM	> 100 µM	> 100 µM	> 100 µM	> 100 µM	> 100 µM	> 100 µM	–	–	–	–	–	–
Cc1cccc(NS(=O)(=O)c2ccc(N=Nc3c(O)c(C(=O)O)cc4ccccc34)cc2)n1	–	> 100 µM	–	–	–	> 100 µM	–	> 100 µM	> 100 µM	> 100 µM	–	> 100 µM	> 100 µM	> 100 µM	–	–	–	–	–	–
NCCN(CCN(C(=O)Nc1ccccc1)c1ccccc1)C(=O)Nc1ccccc1	–	69.4 µM	–	69.7 µM	–	60.3 µM	–	45.2 µM	34.2 µM	49 µM	47.6 µM	–	36.4 µM	39.3 µM	–	–	–	–	–	–
CCOC(=O)Cn1nnc2cc(Nc3c(C)[n+]([O-])c4cc(F)c(OCC)cc4[n+]3[O-])ccc21	–	–	–	–	–	64.4 µM	–	> 100 µM	–	> 100 µM	> 100 µM	> 100 µM	> 100 µM	> 100 µM	–	–	–	–	–	–
COc1ccc(C2=C(Cl)C(=O)O/C2=C\c2ccc(OC)c(Br)c2)cc1Cl	–	–	–	–	–	38.3 µM	–	60.2 µM	> 100 µM	38 µM	> 100 µM	> 100 µM	> 100 µM	> 100 µM	–	–	–	–	–	–
O=C1/C(=C/c2ccc(Cl)cc2)CCCc2ccc(F)cc21	39.8 µM	> 100 µM	20.1 µM	42.9 µM	15.7 µM	43.5 µM	–	–	31.8 µM	46.9 µM	31.8 µM	> 100 µM	42.9 µM	35.9 µM	6.45 µM	19.9 µM	14.4 µM	20.3 µM	16.7 µM	15.8 µM
Cc1nc(SCC(N)=O)c2sc(=S)n(-c3ccccc3)c2n1	–	–	–	> 10 µM	–	> 10 µM	–	> 10 µM	> 10 µM	> 10 µM	> 10 µM	> 10 µM	> 10 µM	–	–	–	–	–	–	–
O=C1N/N=C\c2ccc(cc2)OCc2cccc(n2)COc2ccc(cc2)/C=N\NC1=O	–	> 25 µM	–	> 25 µM	–	> 25 µM	–	> 25 µM	> 25 µM	> 25 µM	–	> 25 µM	> 25 µM	> 25 µM	–	–	–	–	–	–

Compound	GI50 (BT-549 breast)	TGI (BT-549 breast)	GI50 (SN12C renal)	TGI (SN12C renal)	GI50 (TK-10 renal)	TGI (TK-10 renal)	GI50 (SK-MEL-2 melanoma)	TGI (SK-MEL-2 melanoma)	TGI (MALME-3M melanoma)	TGI (SF-268 CNS)	TGI (LOX IMVI melanoma)	TGI (MDA-MB-435)	TGI (UACC-257 melanoma)	TGI (UO-31 renal)	GI50 (MALME-3M melanoma)	GI50 (SF-268 CNS)	GI50 (LOX IMVI melanoma)	GI50 (MDA-MB-435)	GI50 (UACC-257 melanoma)	GI50 (UO-31 renal)
CC(C)CC(NC(=O)C(CCC(=O)OCc1ccccc1)NC(=O)OC(C)(C)C)C(=O)NC(COCc1ccccc1)C(=O)NC(Cc1ccccc1)C(=O)Oc1c(Cl)c(Cl)c(Cl)c(Cl)c1Cl (centres undefined) (Boc-E(OBn)LS(Bn)F-X26; configuration not given here)	–	–	–	90.5 µM	–	72.1 µM	–	69 µM	91.5 µM	> 100 µM	> 100 µM	95.3 µM	66.3 µM	50.2 µM	–	–	–	–	–	–
Cc1ccc(C(=O)Cc2nc3c([nH]c2=O)c(C)nn3-c2ccccc2)c(C)c1	–	> 10 µM	–	> 10 µM	–	> 10 µM	–	–	> 10 µM	> 10 µM	> 10 µM	> 10 µM	> 10 µM	–	–	–	–	–	–	–
CCN(CC)c1ccc(NC(=S)NN(C)C)cc1	–	–	–	> 10 µM	–	> 10 µM	–	> 10 µM	> 10 µM	> 10 µM	> 10 µM	> 10 µM	> 10 µM	> 10 µM	–	–	–	–	–	–
CC(C)=CCC12Cc3ccc(O)cc3C(C(C)CN1)C2C (centres undefined)	–	–	–	> 100 µM	–	> 100 µM	–	–	> 100 µM	> 100 µM	> 100 µM	> 100 µM	> 100 µM	> 100 µM	–	–	–	–	–	–
O=[N+]([O-])/C(Cl)=C(/C(Cl)=C(Cl)Cl)N1CCCCC1	–	–	–	27.4 µM	–	35.8 µM	–	48 µM	11.6 µM	75.1 µM	25.5 µM	20.8 µM	–	25.7 µM	–	–	–	–	–	–
COc1ccc(OC)c(NC(=O)C(=O)C(C(=O)c2ccccc2F)C2OC(=O)c3ccccc32)c1 (centres undefined)	–	–	–	> 100 µM	–	> 100 µM	–	> 100 µM	–	> 100 µM	> 100 µM	–	> 100 µM	> 100 µM	–	–	–	–	–	–
O=c1[nH]c(=O)n(C2CC(O)C(CO)O2)cc1OC/C=C/Cc1ccccc1 (centres undefined)	–	> 100 µM	–	> 100 µM	–	> 100 µM	–	–	> 100 µM	> 100 µM	> 100 µM	> 100 µM	> 100 µM	> 100 µM	–	–	–	–	–	–
Cc1cnc2[nH]c(-c3cccc(F)c3)cc(=O)c2c1	–	–	–	> 100 µM	–	–	–	–	> 100 µM	> 100 µM	> 100 µM	0.0228 µM	> 100 µM	> 100 µM	–	–	–	–	–	–
c1c(N2CCOCC2)ssc1=[N+]1CCOCC1	–	–	–	> 100 µM	–	> 100 µM	–	> 100 µM	> 100 µM	> 100 µM	> 100 µM	–	> 100 µM	> 100 µM	–	–	–	–	–	–
Clc1cc(C(c2cc(Cl)sc2Cl)c2cc(Cl)sc2Cl)c(Cl)s1	–	–	–	> 100 µM	–	> 100 µM	–	> 100 µM	> 100 µM	> 100 µM	> 100 µM	> 100 µM	> 100 µM	> 100 µM	–	–	–	–	–	–
Nc1nncc2[nH]cnc12	–	77.4 µM	–	> 100 µM	–	> 100 µM	–	> 100 µM	–	> 100 µM	> 100 µM	> 100 µM	> 100 µM	> 100 µM	–	–	–	–	–	–
CC(=O)OC1CC2(O)C(CCC3(C)C(c4ccc(=O)oc4)CCC32O)C2(C)C1=CC(O)C1OC12 (centres undefined)	–	–	–	0.882 µM	–	–	–	0.222 µM	0.13 µM	0.0874 µM	1.02 µM	–	0.333 µM	0.323 µM	–	–	–	–	–	–
CC(=O)C1(O)CCC2(O)C3(O)CC=C4CC(O)CCC4(C)C3CC(OC(=O)c3ccc(O)cc3)C12C (centres undefined)	–	> 100 µM	–	> 100 µM	–	> 100 µM	–	> 100 µM	–	> 100 µM	> 100 µM	> 100 µM	> 100 µM	> 100 µM	–	–	–	–	–	–
Cc1ccc(S(=O)(=O)c2c(O)c3ccc(O)c(C)c3oc2=O)cc1	–	> 100 µM	–	> 100 µM	–	> 100 µM	–	> 100 µM	> 100 µM	> 100 µM	–	> 100 µM	> 100 µM	> 100 µM	–	–	–	–	–	–
CCOc1snc(C(Cl)(Cl)Cl)c1Cl	–	70.6 µM	–	89.7 µM	–	> 100 µM	–	–	80.2 µM	46.1 µM	42.8 µM	> 100 µM	33.9 µM	45.5 µM	–	–	–	–	–	–
C[C@H](c1ccccc1)N1C(=O)[C@@H](OCc2ccccc2)[C@H]1[C@H](COC(=O)COCc1ccccc1)OCc1ccccc1	–	–	–	> 100 µM	–	> 100 µM	–	> 100 µM	76.7 µM	> 100 µM	> 100 µM	> 100 µM	–	> 100 µM	–	–	–	–	–	–
Cc1cn(CCCCCOC(=O)NC(CCCNC(N)=O)C(=O)O)c(=O)[nH]c1=O (centres undefined)	–	> 100 µM	–	> 100 µM	–	> 100 µM	–	> 100 µM	–	> 100 µM	> 100 µM	> 100 µM	> 100 µM	> 100 µM	–	–	–	–	–	–
